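The compound was tested at five concentrations on cells cultured in 96-well plates, with a 48-hour exposure period. GI50 marks 50% less growth.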 The source made the active and inactive calls. No stated cut-off is given here; in the data, active = GI50 up to about 1.1 µM and inactive = higher.

Test systems include U-251; T47D; SN12C; MDA-MB-435; OVCAR-5; HCT-15; SW-620; NCI-H226; SK-OV-3; OVCAR-3; TK-10; HCT-116; OVCAR-4; UACC-257; UACC-62; NCI-H460; SF-295; HOP-62.
Holding throughout (assay): NCI anticancer screen, dose series, 48 h

In the case of `[O-][s+]1c2c(Cc3ccccc3)c(Cc3ccccc3)c1CCc1cccc(c1)CC2`, the GI50 is 13.9 µM (inactive) in the assay with U-251; 6.68 µM (inactive) in the assay with T47D; 16.2 µM (inactive) with SN12C; 12.9 µM (inactive) in the assay on MDA-MB-435; 15.3 µM (inactive) in the assay with OVCAR-5; 12.9 µM in the assay with HCT-15. Besides, the GI50 was 24.5 µM (inactive) in the assay on SW-620; 19.1 µM (inactive) in the assay with NCI-H226; 10.7 µM (inactive) in the assay on SK-OV-3; 11.1 µM (inactive) in the assay on OVCAR-3; 19.1 µM (inactive) in the assay with TK-10; 8.99 µM (inactive) in the assay on HCT-116. Besides, the GI50 with OVCAR-4 is 5.02 µM (inactive); with UACC-257 it was 14.1 µM (inactive); in the assay on UACC-62, 10.9 µM (inactive); in the assay on NCI-H460, 13.4 µM (inactive); in the assay on SF-295, 13.2 µM (inactive).
As for `COc1ccccc1[S+]([O-])Nc1ccccc1` (stereo unspecified), the GI50 with U-251 is 41.6 µM (inactive); in the assay on T47D, 11.9 µM (inactive); with SN12C, > 100 µM (inactive); in the assay with MDA-MB-435, 31 µM (inactive); with OVCAR-5, > 100 µM (inactive); with HCT-15 it was 22.8 µM. Also, the GI50 in the assay with SW-620 is 30.7 µM (inactive); with NCI-H226, > 100 µM (inactive); in the assay on HOP-62 it was > 100 µM (inactive); with OVCAR-3 it was > 100 µM (inactive); with TK-10, > 100 µM (inactive); with HCT-116 it was 51.1 µM (inactive). The GI50 is > 100 µM (inactive) with OVCAR-4; 50.4 µM (inactive) in the assay on UACC-257; 10.7 µM (inactive) with UACC-62; 88.1 µM (inactive) with NCI-H460; > 100 µM (inactive) in the assay on SF-295.
With `O=C(C[C@@H]1CCCN2CCCC[C@H]12)N1c2ccccc2Sc2ccc(Cl)cc21`, the GI50 in the assay with U-251 was 12.1 µM (inactive); in the assay on T47D it was 20.5 µM (inactive); in the assay on SN12C, 16.7 µM (inactive); in the assay on MDA-MB-435, 14.5 µM (inactive); in the assay with OVCAR-5, 13.4 µM (inactive); in the assay with HCT-15 it was 15.7 µM. Besides, the GI50 in the assay on SW-620 was 13.9 µM (inactive); with NCI-H226, 27.6 µM (inactive); with HOP-62 it was 13 µM (inactive); in the assay on OVCAR-3, 16.2 µM (inactive); in the assay on TK-10, 20 µM (inactive); in the assay on HCT-116, 16 µM (inactive). Further, the figures for the GI50 with UACC-257, in the assay on NCI-H460 and in the assay on SF-295 were 11.6 µM (inactive), 14.7 µM (inactive) and 19.5 µM (inactive), respectively.
For `O=C(O)c1ccc(Nc2nc3ccccc3nc2C(=O)O)cc1`, the GI50 with U-251, in the assay with T47D, in the assay with SN12C, with MDA-MB-435, in the assay on OVCAR-5 and with HOP-62 was > 100 µM (inactive) in each case. The GI50 in the assay with SK-OV-3, with OVCAR-3, in the assay with TK-10, with HCT-116, with OVCAR-4 and in the assay on UACC-257 was > 100 µM (inactive) throughout. Besides, the GI50 with UACC-62, in the assay on NCI-H460 and with SF-295 was > 100 µM (inactive) in each case.
With `Sc1nnc(-c2ccccc2Nc2ccccc2-c2nnc(S)n2-c2ccccc2)n1-c1ccccc1`, the GI50 with U-251 was 30.1 µM (inactive); with T47D, 23.9 µM (inactive); in the assay on SN12C, 26.5 µM (inactive); in the assay with MDA-MB-435, 22.9 µM (inactive); with OVCAR-5, 47.9 µM (inactive); in the assay on HCT-15, 34.3 µM. Besides, the GI50 is 26.9 µM (inactive) with SW-620; 29.7 µM (inactive) in the assay on NCI-H226; 58.5 µM (inactive) in the assay on HOP-62; 56.6 µM (inactive) in the assay with OVCAR-3; 52.8 µM (inactive) in the assay with TK-10; 63.1 µM (inactive) in the assay on HCT-116. The GI50 in the assay with OVCAR-4 is 40.4 µM (inactive); in the assay on UACC-257, 44.3 µM (inactive); in the assay on UACC-62, 58.3 µM (inactive); in the assay with NCI-H460, 37.1 µM (inactive); in the assay with SF-295, 43.1 µM (inactive).
